Data on 16 compounds can be found in ChEMBL document CHEMBL5126538, “A score years' update in the synthesis and biological evaluation of medicinally important 2-pyridones” (Eur J Med Chem, 2022).

pIC50: −log10 of the molar value.

Assay [1] has as its target Coagulation factor VII/tissue factor (Homo sapiens, UniProt P08709). Briefly: Inhibition of TF/VIIA complex (unknown origin). The class given is protein-complex assay.
A short description of assay [2]: Inhibition of HIV reverse transcriptase. Also on record: species or system Human immunodeficiency virus.
Assay [3] in a line: Inhibition of quorum sensing system in Pseudomonas aeruginosa assessed as reduction in LasI gene expression measured per well.
A further assay relates to Human adenovirus 7. Put plainly: Antiviral activity against Human adenovirus 7 infected in human HEp-2 cells assessed as reduction in viral growth incubated for 0.5 hrs followed by cell infection measured after 1 hr by crystal violet staining based assay relative to control. Set-up: scale not given: the % may be the effect or the level left. The assay is classed as functional. Particulars: time 1.5 hrs.

The test system of another assay is Coxsackievirus B4. Put plainly: Antiviral activity against Coxsackievirus B4 infected in African green monkey BGM cells assessed as reduction in viral growth incubated for 0.5 hrs followed by cell infection measured after 1 hr by crystal violet staining based assay relative to control. The class given is functional. Set-up: scale not given: the % may be the effect or the level left. The following applies: time 1.5 hrs.

The test system of the next assay is Human alphaherpesvirus 1. Briefly: Antiviral activity against […] type 1 infected in African green monkey Vero cells assessed as reduction in viral growth incubated for 0.5 hrs followed by cell infection measured after 1 hr by crystal violet staining based assay relative to control. The class given is functional. Set-up: scale not given: the % may be the effect or the level left. Particulars: time 1.5 hrs.

Another assay has as its system Hepatovirus A. Briefly: Antiviral activity against Hepatitis A virus HM175 infected in monkey FRhK-4 cells assessed as reduction in viral growth incubated for 0.5 hrs followed by cell infection measured after 1 hr by crystal violet staining based assay relative to control. The assay is classed as functional. Also on record: scale not given: the % may be the effect or the level left. The following applies: time 1.5 hrs.

For assay [4], the target named is Interleukin-6 (Homo sapiens) (UniProt P05231). Briefly: Inhibition of IL-6 (unknown origin) relative to control. Particulars: concentration not given here.
Sequence of Interleukin-6 (Homo sapiens) (P05231 whole entry): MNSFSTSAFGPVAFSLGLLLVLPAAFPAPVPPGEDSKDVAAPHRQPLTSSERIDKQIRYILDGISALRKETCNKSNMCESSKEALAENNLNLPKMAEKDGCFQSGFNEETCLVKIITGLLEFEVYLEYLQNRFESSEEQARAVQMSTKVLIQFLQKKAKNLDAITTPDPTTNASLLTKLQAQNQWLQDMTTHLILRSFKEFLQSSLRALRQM
The target of assay [5] is Human immunodeficiency virus type 1 reverse transcriptase (Human immunodeficiency virus 1, UniProt Q72547). Put plainly: Inhibition of HIV-1 reverse transcriptase using rC.dG as primer/template.
Another assay deals with Escherichia coli. Put plainly: Antibacterial activity against Escherichia coli assessed as zone of inhibition incubated for 24 hrs by well diffusion assay. The class given is functional.
The test system of a further assay is Aspergillus niger. Briefly: Antifungal activity against Aspergillus niger assessed as zone of inhibition incubated for 24 hrs by well diffusion assay. The class given is functional.
In a further assay the test system is Bacillus subtilis. Briefly: Antibacterial activity against Bacillus subtilis assessed as zone of inhibition incubated for 24 hrs by well diffusion assay. The assay is classed as functional. (A growth-free zone around the sample is the usual read-out of agar diffusion tests.)
A further assay relates to Staphylococcus aureus. Briefly: Antibacterial activity against Staphylococcus aureus assessed as zone of inhibition incubated for 24 hrs by well diffusion assay. The class given is functional.
In the next assay the test system is HepG2. Briefly: Cytotoxicity against human HepG2 cells assessed as cell growth inhibition incubated for 72 hrs by SRB assay. The assay is classed as functional, cell-based. The following applies: HepG2, 72 h.

The term pIC50 denotes the negative decadic logarithm of the IC50, by convention in mol/L. In general, inhibition refers to the relative decrease from the control value, in per cent.

Sequence of Coagulation factor VII/tissue factor (P08709 61-212 limits assumed): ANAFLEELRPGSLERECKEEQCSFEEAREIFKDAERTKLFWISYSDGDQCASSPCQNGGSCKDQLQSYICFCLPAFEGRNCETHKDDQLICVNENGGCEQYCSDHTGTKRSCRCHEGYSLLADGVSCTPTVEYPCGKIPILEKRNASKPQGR
Sequence of Coagulation factor VII/tissue factor (P08709 213-466 limits assumed): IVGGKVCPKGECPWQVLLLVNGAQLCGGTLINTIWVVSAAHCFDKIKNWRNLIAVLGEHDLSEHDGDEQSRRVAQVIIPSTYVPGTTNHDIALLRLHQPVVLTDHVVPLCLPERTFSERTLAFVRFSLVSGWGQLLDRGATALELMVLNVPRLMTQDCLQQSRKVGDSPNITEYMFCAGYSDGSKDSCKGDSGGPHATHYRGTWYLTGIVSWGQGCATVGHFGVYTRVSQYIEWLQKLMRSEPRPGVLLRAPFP
Sequence of Coagulation factor VII/tissue factor (P13726 33-295 partner limits assumed): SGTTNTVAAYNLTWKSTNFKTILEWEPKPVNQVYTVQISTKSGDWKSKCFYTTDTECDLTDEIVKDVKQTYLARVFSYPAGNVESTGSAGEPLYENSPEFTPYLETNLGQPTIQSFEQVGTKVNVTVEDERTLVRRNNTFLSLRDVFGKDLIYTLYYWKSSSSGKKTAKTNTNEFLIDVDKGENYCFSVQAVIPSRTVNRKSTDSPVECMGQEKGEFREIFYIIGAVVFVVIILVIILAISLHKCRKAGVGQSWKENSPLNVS

As for `CC(C)Nc1ccc(-c2cc(N)cc([N+](=O)[O-])c2)n(CC(=O)NCc2ccc(C(=N)N)cc2)c1=O`, the pIC50 in assay [1] was 7.28.
`CCc1cc(NCN2C(=O)c3ccccc3C2=O)c(O)nc1C`: the pIC50 in [2] was 10.24.
In the case of `CC[C@@H](C)c1cc(O)c(C)c(=O)[nH]1`, the MIC in assay [3] was found to be 6.35 µg.
As to `O=c1c(-c2nc3ccccc3s2)cc2c(n1NS(=O)(=O)c1ccc(Cl)cc1)CCCC2`, the Activity result with Human adenovirus 7, in the assay with Coxsackievirus B4, with Human alphaherpesvirus 1 and with Hepatovirus A was “<=70%” in each case.
Turning to `CCc1cc(CCN2C(=O)c3ccccc3C2=O)c(O)nc1C`, the pIC50 in assay [2] was 8.21.
In [4], `COc1ccc(-c2c(C(=O)Nc3ccc(O)cc3)c(N)[nH]c(=O)c2C#N)cc1` showed an inhibition of 65.1%.
In [5], `CCc1cc(NCc2cc3ccccc3o2)c(O)nc1C` gave a negative logarithm of the IC50 (pIC50) of 9.48.
With `CCc1c(O)cc(C(C)C)[nH]c1=O`, in assay [3], the MIC was found to be 6.35 µg.
Regarding `N#Cc1cc(-c2nc3ccccc3s2)c(=O)n(NS(=O)(=O)c2ccccc2)c1N`, the Activity result with Human adenovirus 7, with Coxsackievirus B4, in the assay on Human alphaherpesvirus 1 and in the assay with Hepatovirus A was “<=70%” in each case.
As to `Cc1[nH]c(=O)c(C#N)c(-c2ccccc2Br)c1C(=O)Nc1ccccc1`, the “diameter of the inhibition zone (DIZ)” value turned out to be 3.75 mm in the assay on Escherichia coli, 3 mm in the assay with Aspergillus niger, 3.5 mm in the assay on Bacillus subtilis and 4.25 mm with Staphylococcus aureus.
`COC(=O)c1ccccc1-n1c(N)c(C#N)c(-c2ccc(N(C)C)cc2)cc1=O`: in the assay with HepG2, the pIC50 is 5.62.
For the compound `Cc1c(O)cc(CC(C)C)[nH]c1=O`, the MIC in [3] worked out at 6.35 µg.
Same read-out and setting: the value for `CCCc1cc(O)c(CC)c(=O)[nH]1` was 6.35 µg.
For `COC(=O)c1ccccc1-n1c(N)c(C(N)=O)c(-c2ccc(C)cc2)cc1=O`, in the assay with HepG2, the negative-log IC50 (pIC50) was 5.87.
As to `Cc1ccc(S(=O)(=O)Nn2c3c(cc(-c4nc5ccccc5s4)c2=O)CCCC3)cc1`, the Activity entry in the assay with Human adenovirus 7, in the assay on Coxsackievirus B4, with Human alphaherpesvirus 1 and in the assay on Hepatovirus A was “<=70%” throughout.
As to `CC(C)Nc1ccc(-c2cc(C(=O)O)cc([N+](=O)[O-])c2)n(CC(=O)NCc2ccc(C(=N)N)cc2)c1=O`, the negative logarithm of the IC50 (pIC50) in assay [1] was 6.93.
